# Experimental data published in PubChem BioAssay (NCI).
#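 A five-concentration, 48-hour dose response in 96-well plates underlies each endpoint, interpolated linearly between surrounding concentrations. GI50: concentration for 50% inhibition of growth. TGI marks complete inhibition of growth.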
# Tested on: MOLT-4 leukemia
# Experiment: NCI-60 cell line screen, 48 h
SMILES,GI50,TGI
N.N.O=C([O-])P(=O)([O-])[O-].[Na+].[Pt+4],> 100 µM,> 100 µM

# Tested on: NCI-H226 lung
# Experiment: NCI-60 cell line screen, 48 h
row,SMILES,TGI
1,OC/C=C(\I)CCCOCOCc1ccccc1,> 100 µM
2,CCc1ccc(Nc2ccc([N+](=O)[O-])cc2[N+](=O)[O-])cc1,99.8 µM
3,COc1cccc(N2C(=O)[C@H]3CC(C)c4c([nH]c5ccccc45)[C@H]3C2=O)c1 (stereo not given in full),> 100 µM
4,N#CCC(=O)NC1C2CC3CC(C2)CC1C3 (stereo not given),48.5 µM
5,CCO/N=C(/N)c1ncn(Cc2ccccc2)c1NCC(OCC)OCC,> 100 µM

# Tested on: NCI-H23 lung
# Experiment: NCI-60 cell line screen, 48 h
SMILES,TGI,GI50
OC/C=C(\I)CCCOCOCc1ccccc1,> 100 µM,
CCc1ccc(Nc2ccc([N+](=O)[O-])cc2[N+](=O)[O-])cc1,> 100 µM,
COC(=O)c1cc(C)c(C)c2c1NC(=O)CNC2=O,> 100 µM,
COc1cccc(N2C(=O)[C@H]3CC(C)c4c([nH]c5ccccc45)[C@H]3C2=O)c1 (stereo not given in full),> 100 µM,
N#CCC(=O)NC1C2CC3CC(C2)CC1C3 (stereo not given),32.6 µM,
N.N.O=C([O-])P(=O)([O-])[O-].[Na+].[Pt+4],> 100 µM,> 100 µM

# Tested on: NCI-H460 lung
# Experiment: NCI-60 cell line screen, 48 h
SMILES,TGI,GI50
OC/C=C(\I)CCCOCOCc1ccccc1,> 100 µM,
CCc1ccc(Nc2ccc([N+](=O)[O-])cc2[N+](=O)[O-])cc1,> 100 µM,
COC(=O)c1cc(C)c(C)c2c1NC(=O)CNC2=O,> 100 µM,
COc1cccc(N2C(=O)[C@H]3CC(C)c4c([nH]c5ccccc45)[C@H]3C2=O)c1 (stereo not given in full),> 100 µM,
N#CCC(=O)NC1C2CC3CC(C2)CC1C3 (stereo not given),32.3 µM,
CCO/N=C(/N)c1ncn(Cc2ccccc2)c1NCC(OCC)OCC,> 100 µM,
N.N.O=C([O-])P(=O)([O-])[O-].[Na+].[Pt+4],> 100 µM,> 100 µM

# Tested on: NCI-H522 lung
# Experiment: NCI-60 cell line screen, 48 h
SMILES,TGI,GI50
OC/C=C(\I)CCCOCOCc1ccccc1,80.2 µM,
COc1cccc(N2C(=O)[C@H]3CC(C)c4c([nH]c5ccccc45)[C@H]3C2=O)c1 (stereo not given in full),> 100 µM,
N#CCC(=O)NC1C2CC3CC(C2)CC1C3 (stereo not given),31 µM,
CCO/N=C(/N)c1ncn(Cc2ccccc2)c1NCC(OCC)OCC,> 100 µM,
N.N.O=C([O-])P(=O)([O-])[O-].[Na+].[Pt+4],> 100 µM,> 100 µM

# Tested on: OVCAR-3 ovarian
# Experiment: NCI-60 cell line screen, 48 h
SMILES,TGI,GI50
OC/C=C(\I)CCCOCOCc1ccccc1,> 100 µM,
CCc1ccc(Nc2ccc([N+](=O)[O-])cc2[N+](=O)[O-])cc1,> 100 µM,
COC(=O)c1cc(C)c(C)c2c1NC(=O)CNC2=O,> 100 µM,
COc1cccc(N2C(=O)[C@H]3CC(C)c4c([nH]c5ccccc45)[C@H]3C2=O)c1 (stereo not given in full),> 100 µM,
N#CCC(=O)NC1C2CC3CC(C2)CC1C3 (stereo not given),32 µM,
CCO/N=C(/N)c1ncn(Cc2ccccc2)c1NCC(OCC)OCC,> 100 µM,
N.N.O=C([O-])P(=O)([O-])[O-].[Na+].[Pt+4],> 100 µM,> 100 µM

# Tested on: OVCAR-4 ovarian
# Experiment: NCI-60 cell line screen, 48 h
SMILES,TGI,GI50
OC/C=C(\I)CCCOCOCc1ccccc1,> 100 µM,
CCc1ccc(Nc2ccc([N+](=O)[O-])cc2[N+](=O)[O-])cc1,> 100 µM,
COC(=O)c1cc(C)c(C)c2c1NC(=O)CNC2=O,> 100 µM,
N#CCC(=O)NC1C2CC3CC(C2)CC1C3 (stereo not given),50.5 µM,
N.N.O=C([O-])P(=O)([O-])[O-].[Na+].[Pt+4],> 100 µM,> 100 µM

# Tested on: OVCAR-5 ovarian
# Experiment: NCI-60 cell line screen, 48 h
row,SMILES,TGI
1,OC/C=C(\I)CCCOCOCc1ccccc1,> 100 µM
2,CCc1ccc(Nc2ccc([N+](=O)[O-])cc2[N+](=O)[O-])cc1,> 100 µM
3,N#CCC(=O)NC1C2CC3CC(C2)CC1C3 (stereo not given),36.9 µM
4,CCO/N=C(/N)c1ncn(Cc2ccccc2)c1NCC(OCC)OCC,> 100 µM

# Tested on: OVCAR-8 ovarian
# Experiment: NCI-60 cell line screen, 48 h
SMILES,TGI,GI50
OC/C=C(\I)CCCOCOCc1ccccc1,> 100 µM,
CCc1ccc(Nc2ccc([N+](=O)[O-])cc2[N+](=O)[O-])cc1,> 100 µM,
COC(=O)c1cc(C)c(C)c2c1NC(=O)CNC2=O,> 100 µM,
COc1cccc(N2C(=O)[C@H]3CC(C)c4c([nH]c5ccccc45)[C@H]3C2=O)c1 (stereo not given in full),> 100 µM,
N#CCC(=O)NC1C2CC3CC(C2)CC1C3 (stereo not given),33.1 µM,
CCO/N=C(/N)c1ncn(Cc2ccccc2)c1NCC(OCC)OCC,> 100 µM,
N.N.O=C([O-])P(=O)([O-])[O-].[Na+].[Pt+4],> 100 µM,> 100 µM

# Tested on: RPMI-8226 leukemia
# Experiment: NCI-60 cell line screen, 48 h
SMILES,TGI,GI50
OC/C=C(\I)CCCOCOCc1ccccc1,47.5 µM,
CCc1ccc(Nc2ccc([N+](=O)[O-])cc2[N+](=O)[O-])cc1,> 100 µM,
COC(=O)c1cc(C)c(C)c2c1NC(=O)CNC2=O,> 100 µM,
COc1cccc(N2C(=O)[C@H]3CC(C)c4c([nH]c5ccccc45)[C@H]3C2=O)c1 (stereo not given in full),> 100 µM,
N#CCC(=O)NC1C2CC3CC(C2)CC1C3 (stereo not given),> 100 µM,
CCO/N=C(/N)c1ncn(Cc2ccccc2)c1NCC(OCC)OCC,> 100 µM,
N.N.O=C([O-])P(=O)([O-])[O-].[Na+].[Pt+4],> 100 µM,> 100 µM

# Tested on: RXF 393 renal
# Experiment: NCI-60 cell line screen, 48 h
SMILES,TGI,GI50
OC/C=C(\I)CCCOCOCc1ccccc1,72.3 µM,
CCc1ccc(Nc2ccc([N+](=O)[O-])cc2[N+](=O)[O-])cc1,> 100 µM,
COC(=O)c1cc(C)c(C)c2c1NC(=O)CNC2=O,> 100 µM,
COc1cccc(N2C(=O)[C@H]3CC(C)c4c([nH]c5ccccc45)[C@H]3C2=O)c1 (stereo not given in full),38.8 µM,
N#CCC(=O)NC1C2CC3CC(C2)CC1C3 (stereo not given),30.2 µM,
CCO/N=C(/N)c1ncn(Cc2ccccc2)c1NCC(OCC)OCC,99.5 µM,
N.N.O=C([O-])P(=O)([O-])[O-].[Na+].[Pt+4],> 100 µM,> 100 µM

# Tested on: SF-268 CNS
# Experiment: NCI-60 cell line screen, 48 h
SMILES,TGI,GI50
OC/C=C(\I)CCCOCOCc1ccccc1,> 100 µM,
COc1cccc(N2C(=O)[C@H]3CC(C)c4c([nH]c5ccccc45)[C@H]3C2=O)c1 (stereo not given in full),> 100 µM,
N#CCC(=O)NC1C2CC3CC(C2)CC1C3 (stereo not given),35.7 µM,
CCO/N=C(/N)c1ncn(Cc2ccccc2)c1NCC(OCC)OCC,> 100 µM,
N.N.O=C([O-])P(=O)([O-])[O-].[Na+].[Pt+4],> 100 µM,> 100 µM

# Tested on: SF-295 CNS
# Experiment: NCI-60 cell line screen, 48 h
SMILES,TGI,GI50
OC/C=C(\I)CCCOCOCc1ccccc1,> 100 µM,
CCc1ccc(Nc2ccc([N+](=O)[O-])cc2[N+](=O)[O-])cc1,> 100 µM,
COC(=O)c1cc(C)c(C)c2c1NC(=O)CNC2=O,> 100 µM,
COc1cccc(N2C(=O)[C@H]3CC(C)c4c([nH]c5ccccc45)[C@H]3C2=O)c1 (stereo not given in full),67.6 µM,
N#CCC(=O)NC1C2CC3CC(C2)CC1C3 (stereo not given),32 µM,
CCO/N=C(/N)c1ncn(Cc2ccccc2)c1NCC(OCC)OCC,> 100 µM,
N.N.O=C([O-])P(=O)([O-])[O-].[Na+].[Pt+4],> 100 µM,> 100 µM

# Tested on: SF-539 CNS
# Experiment: NCI-60 cell line screen, 48 h
SMILES,TGI,GI50
OC/C=C(\I)CCCOCOCc1ccccc1,> 100 µM,
CCc1ccc(Nc2ccc([N+](=O)[O-])cc2[N+](=O)[O-])cc1,> 100 µM,
COC(=O)c1cc(C)c(C)c2c1NC(=O)CNC2=O,> 100 µM,
COc1cccc(N2C(=O)[C@H]3CC(C)c4c([nH]c5ccccc45)[C@H]3C2=O)c1 (stereo not given in full),93.1 µM,
N#CCC(=O)NC1C2CC3CC(C2)CC1C3 (stereo not given),32.3 µM,
CCO/N=C(/N)c1ncn(Cc2ccccc2)c1NCC(OCC)OCC,> 100 µM,
N.N.O=C([O-])P(=O)([O-])[O-].[Na+].[Pt+4],> 100 µM,> 100 µM

# Tested on: SK-MEL-2 melanoma
# Experiment: NCI-60 cell line screen, 48 h
SMILES,TGI,GI50
OC/C=C(\I)CCCOCOCc1ccccc1,47.7 µM,
CCc1ccc(Nc2ccc([N+](=O)[O-])cc2[N+](=O)[O-])cc1,> 100 µM,
COC(=O)c1cc(C)c(C)c2c1NC(=O)CNC2=O,> 100 µM,
COc1cccc(N2C(=O)[C@H]3CC(C)c4c([nH]c5ccccc45)[C@H]3C2=O)c1 (stereo not given in full),> 100 µM,
N#CCC(=O)NC1C2CC3CC(C2)CC1C3 (stereo not given),55.7 µM,
CCO/N=C(/N)c1ncn(Cc2ccccc2)c1NCC(OCC)OCC,> 100 µM,
N.N.O=C([O-])P(=O)([O-])[O-].[Na+].[Pt+4],> 100 µM,> 100 µM
